Holding throughout (experiment): biochemical
For assay [1], the target named is T1, dopamine (DA) reuptake in synaptosomes (Rattus norvegicus, UniProt P23977).
T1 construct: in synaptosomes as described in WO 97/16451; from tissue

Assay [2] concerns the target T2, serotonine (5-HT) reuptake in synaptosomes (Rattus norvegicus, UniProt P31652).
T2 construct: in synaptosomes as described in WO 97/16451; from tissue

Assay [3] deals with T3, noradrenaline (NA) reuptake in synaptosomes (Rattus norvegicus, UniProt Q63380).
T3 construct: in synaptosomes as described in WO 97/16451; from tissue
T3 sequence (Q63380 1-617): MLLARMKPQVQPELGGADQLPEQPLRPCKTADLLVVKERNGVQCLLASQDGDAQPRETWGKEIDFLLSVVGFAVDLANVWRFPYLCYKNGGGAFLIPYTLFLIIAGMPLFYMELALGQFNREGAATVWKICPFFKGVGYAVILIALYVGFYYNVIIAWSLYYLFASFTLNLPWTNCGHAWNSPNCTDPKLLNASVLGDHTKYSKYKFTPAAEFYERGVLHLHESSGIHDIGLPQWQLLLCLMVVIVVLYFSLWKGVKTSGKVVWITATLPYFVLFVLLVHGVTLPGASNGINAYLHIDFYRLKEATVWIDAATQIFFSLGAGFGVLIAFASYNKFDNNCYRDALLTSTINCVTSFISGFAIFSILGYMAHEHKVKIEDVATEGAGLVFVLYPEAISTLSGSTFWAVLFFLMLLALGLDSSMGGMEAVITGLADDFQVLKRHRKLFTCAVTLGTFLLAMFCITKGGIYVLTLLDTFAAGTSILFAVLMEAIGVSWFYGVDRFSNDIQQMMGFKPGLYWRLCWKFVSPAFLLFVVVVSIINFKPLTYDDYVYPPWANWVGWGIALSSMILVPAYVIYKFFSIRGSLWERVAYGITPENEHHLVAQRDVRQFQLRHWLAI

SMILES strings stand for the structures. Structures can show the parent of a compound that is named as a salt.

As usually defined, the IC50 is the concentration that gives 50% inhibition.

T1 sequence (P23977 whole entry): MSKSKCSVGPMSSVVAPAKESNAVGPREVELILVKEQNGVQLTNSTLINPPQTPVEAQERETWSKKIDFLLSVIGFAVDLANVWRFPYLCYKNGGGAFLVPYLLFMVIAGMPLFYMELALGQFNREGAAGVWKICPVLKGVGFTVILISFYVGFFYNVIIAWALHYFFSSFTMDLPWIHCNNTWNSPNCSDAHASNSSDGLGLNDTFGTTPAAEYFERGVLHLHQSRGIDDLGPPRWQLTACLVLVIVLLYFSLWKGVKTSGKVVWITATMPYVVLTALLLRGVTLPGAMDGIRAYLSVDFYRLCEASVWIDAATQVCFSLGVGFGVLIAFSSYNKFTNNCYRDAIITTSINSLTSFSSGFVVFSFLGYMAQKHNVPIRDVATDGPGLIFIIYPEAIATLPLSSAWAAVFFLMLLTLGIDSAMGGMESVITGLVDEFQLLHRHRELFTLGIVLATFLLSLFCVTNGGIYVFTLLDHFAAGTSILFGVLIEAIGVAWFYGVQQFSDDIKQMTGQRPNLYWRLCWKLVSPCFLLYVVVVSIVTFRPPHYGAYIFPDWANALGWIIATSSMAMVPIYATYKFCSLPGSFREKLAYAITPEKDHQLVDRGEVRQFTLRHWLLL
T2 sequence (P31652 whole entry): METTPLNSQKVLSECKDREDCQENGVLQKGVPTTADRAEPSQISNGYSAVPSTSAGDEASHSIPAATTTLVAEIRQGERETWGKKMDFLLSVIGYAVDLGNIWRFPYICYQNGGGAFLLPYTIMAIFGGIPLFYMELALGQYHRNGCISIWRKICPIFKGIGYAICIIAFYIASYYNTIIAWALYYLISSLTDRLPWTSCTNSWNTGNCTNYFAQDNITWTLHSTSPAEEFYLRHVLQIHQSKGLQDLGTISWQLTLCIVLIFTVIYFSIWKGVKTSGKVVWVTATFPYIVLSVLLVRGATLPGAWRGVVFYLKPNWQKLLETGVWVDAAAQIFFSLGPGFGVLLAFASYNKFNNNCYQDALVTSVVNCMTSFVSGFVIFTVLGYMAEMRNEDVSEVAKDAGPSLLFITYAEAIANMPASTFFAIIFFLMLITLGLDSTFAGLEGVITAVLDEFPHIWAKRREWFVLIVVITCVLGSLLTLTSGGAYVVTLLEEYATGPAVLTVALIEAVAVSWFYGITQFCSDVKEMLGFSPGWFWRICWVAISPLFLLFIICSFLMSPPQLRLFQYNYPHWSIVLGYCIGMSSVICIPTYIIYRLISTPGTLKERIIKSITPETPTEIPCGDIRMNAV

With `CCC(=O)N(CC1CCN(CCc2ccc(F)cc2)CC1)c1ccccc1` [Compound 12j, N-{1-[2-(4-Fluoro-phenyl)-ethyl]-piperidin-4-ylmethyl}-N-phenyl-propionamide fumaric acid salt], the IC50 amounted to 480 nM in assay [1], 5500 nM in assay [2] and 280 nM in assay [3].

Source of the values: patent publication US20100234427A1 (priority 2006, published 2010).
